Experimental data reported in ChEMBL document CHEMBL4665828, “Glucosylpolyphenols as Inhibitors of Aβ-Induced Fyn Kinase Activation and Tau Phosphorylation: Synthesis, Membrane Permeability, and Exploratory Target Assessment within the Scope of Type 2 Diabetes and Alzheimer's Disease” (J Med Chem, 2020).
Active and inactive are the calls of the source. The rule behind the calls is not given here.

Experiments:
[1] = target: T1, Tyrosine-protein kinase Fyn (Homo sapiens, UniProt P06241); assay: Inhibition of basal Fyn activation in hiPSC neural progenitor cells assessed as reduction in pFyn levels in absence of amyloid beta at 10 uM by DAPI staining based immunofluorescence assay; settings: induced pluripotent stem cell-derived neuron
Target sequence in this assay (P06241 whole entry): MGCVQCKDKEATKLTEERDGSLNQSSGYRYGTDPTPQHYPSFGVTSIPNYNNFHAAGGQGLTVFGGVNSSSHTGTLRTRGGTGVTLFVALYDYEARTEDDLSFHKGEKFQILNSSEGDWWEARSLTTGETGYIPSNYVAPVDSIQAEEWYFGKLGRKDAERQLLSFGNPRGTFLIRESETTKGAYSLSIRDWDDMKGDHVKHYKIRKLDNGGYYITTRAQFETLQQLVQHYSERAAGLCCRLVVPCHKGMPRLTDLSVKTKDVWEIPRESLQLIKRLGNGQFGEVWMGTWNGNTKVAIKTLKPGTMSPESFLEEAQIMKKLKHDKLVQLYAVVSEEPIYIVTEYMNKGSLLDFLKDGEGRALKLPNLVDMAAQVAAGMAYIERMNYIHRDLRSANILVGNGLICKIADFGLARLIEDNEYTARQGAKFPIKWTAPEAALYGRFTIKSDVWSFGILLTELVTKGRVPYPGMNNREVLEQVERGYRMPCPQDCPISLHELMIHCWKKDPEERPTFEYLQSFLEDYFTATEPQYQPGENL

[2] = target: Amyloid-beta precursor protein (Homo sapiens) (UniProt P05067); assay: Inhibition of human amyloid beta (1 to 42) self-induced aggregation at 50 uM by Thioflavin T based fluorometric assay
Sequence of Amyloid-beta precursor protein (Homo sapiens) (P05067 whole entry): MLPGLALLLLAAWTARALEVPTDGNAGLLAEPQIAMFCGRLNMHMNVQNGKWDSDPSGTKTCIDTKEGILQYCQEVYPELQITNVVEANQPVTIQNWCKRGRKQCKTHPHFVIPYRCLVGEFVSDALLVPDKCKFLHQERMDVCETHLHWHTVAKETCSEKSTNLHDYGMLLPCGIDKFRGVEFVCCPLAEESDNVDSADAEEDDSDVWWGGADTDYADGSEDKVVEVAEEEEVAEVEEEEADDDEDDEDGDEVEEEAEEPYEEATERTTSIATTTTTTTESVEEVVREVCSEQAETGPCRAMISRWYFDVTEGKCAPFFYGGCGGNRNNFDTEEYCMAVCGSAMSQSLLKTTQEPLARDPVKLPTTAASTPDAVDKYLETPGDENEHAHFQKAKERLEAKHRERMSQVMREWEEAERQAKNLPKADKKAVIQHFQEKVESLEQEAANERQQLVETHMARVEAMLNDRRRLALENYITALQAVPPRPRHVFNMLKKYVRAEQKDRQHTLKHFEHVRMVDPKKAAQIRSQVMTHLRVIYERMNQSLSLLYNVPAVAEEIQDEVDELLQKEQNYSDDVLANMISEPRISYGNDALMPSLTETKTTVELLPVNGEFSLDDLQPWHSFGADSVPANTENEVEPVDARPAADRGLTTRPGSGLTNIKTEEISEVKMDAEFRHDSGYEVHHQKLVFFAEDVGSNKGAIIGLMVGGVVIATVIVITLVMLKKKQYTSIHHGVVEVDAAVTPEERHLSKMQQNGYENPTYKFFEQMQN

[3] = Cytotoxicity against hiPSC neural cells assessed as reduction in cell viability at 10 uM incubated for 24 hrs by MTT assay; type: cell-based; settings: human, induced pluripotent stem cell-derived neuron
[4] = target: Acetylcholinesterase (Electrophorus electricus) (UniProt O42275); assay: Inhibition of electric eel AChE at 100 uM using acetylthiocholine iodide as substrate by Ellman's colorimetric analysis relative to control
Sequence of Acetylcholinesterase (Electrophorus electricus) (O42275 24-633 limits assumed): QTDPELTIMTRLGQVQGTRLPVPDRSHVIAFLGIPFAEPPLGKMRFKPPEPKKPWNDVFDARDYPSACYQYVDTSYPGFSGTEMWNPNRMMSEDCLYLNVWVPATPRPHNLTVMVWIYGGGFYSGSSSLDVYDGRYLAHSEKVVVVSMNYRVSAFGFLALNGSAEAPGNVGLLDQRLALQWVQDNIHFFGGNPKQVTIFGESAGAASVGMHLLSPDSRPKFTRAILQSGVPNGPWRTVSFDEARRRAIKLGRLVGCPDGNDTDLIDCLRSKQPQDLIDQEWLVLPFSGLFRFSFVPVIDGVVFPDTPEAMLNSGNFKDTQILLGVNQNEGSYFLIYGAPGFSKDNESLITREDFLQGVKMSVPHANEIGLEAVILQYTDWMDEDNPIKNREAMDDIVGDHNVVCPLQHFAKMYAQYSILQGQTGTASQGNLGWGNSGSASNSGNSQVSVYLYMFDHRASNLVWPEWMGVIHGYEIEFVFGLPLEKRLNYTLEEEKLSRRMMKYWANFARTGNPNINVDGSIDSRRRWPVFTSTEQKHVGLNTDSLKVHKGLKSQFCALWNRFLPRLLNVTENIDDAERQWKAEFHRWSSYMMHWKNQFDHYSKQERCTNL

[5] = target: Cholinesterase (Equus caballus) (UniProt P81908); assay: Inhibition of equine serum BuChE at 100 uM using butyrylthiocholine iodide as substrate by Ellman's colorimetric analysis relative to control
Sequence of Cholinesterase (Equus caballus) (P81908 whole entry): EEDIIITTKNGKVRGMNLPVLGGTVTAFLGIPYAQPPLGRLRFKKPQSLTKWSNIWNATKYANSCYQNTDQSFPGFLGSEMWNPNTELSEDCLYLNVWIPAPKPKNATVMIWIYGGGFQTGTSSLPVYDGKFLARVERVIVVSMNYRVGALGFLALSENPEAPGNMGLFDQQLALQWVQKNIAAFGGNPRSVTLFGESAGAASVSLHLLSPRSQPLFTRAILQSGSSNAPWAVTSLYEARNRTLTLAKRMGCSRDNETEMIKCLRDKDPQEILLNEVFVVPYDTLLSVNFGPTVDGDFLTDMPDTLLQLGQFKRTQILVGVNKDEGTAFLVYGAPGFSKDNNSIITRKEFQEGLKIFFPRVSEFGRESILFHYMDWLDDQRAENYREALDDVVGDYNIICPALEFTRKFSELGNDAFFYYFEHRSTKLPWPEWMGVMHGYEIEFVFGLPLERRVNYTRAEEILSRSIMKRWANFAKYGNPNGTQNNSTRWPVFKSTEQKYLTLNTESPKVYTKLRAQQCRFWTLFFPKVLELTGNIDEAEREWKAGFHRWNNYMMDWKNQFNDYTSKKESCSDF

[6] = Octanol/water partition coefficient, log D of compound at pH 7.4 at 1 uM incubated for 2 hrs by LC-MS analysis; type: physicochemical
[7] = target: T1, Tyrosine-protein kinase Fyn; assay: Inhibition of natural amyloid beta (1 to 42) -induced Fyn activation in hiPSC neural progenitor cells assessed as reduction in Fyn production at 10 uM preincubated fot 45 mins followed by amyloid beta addition and measured after 15 mins by DAPI/Alexa fluor 594 immunostaining based assay; settings: Induced pluripotent stem cell-derived neuron, time 60.0 min
Target sequence in this assay (P06241 2-537 limits assumed): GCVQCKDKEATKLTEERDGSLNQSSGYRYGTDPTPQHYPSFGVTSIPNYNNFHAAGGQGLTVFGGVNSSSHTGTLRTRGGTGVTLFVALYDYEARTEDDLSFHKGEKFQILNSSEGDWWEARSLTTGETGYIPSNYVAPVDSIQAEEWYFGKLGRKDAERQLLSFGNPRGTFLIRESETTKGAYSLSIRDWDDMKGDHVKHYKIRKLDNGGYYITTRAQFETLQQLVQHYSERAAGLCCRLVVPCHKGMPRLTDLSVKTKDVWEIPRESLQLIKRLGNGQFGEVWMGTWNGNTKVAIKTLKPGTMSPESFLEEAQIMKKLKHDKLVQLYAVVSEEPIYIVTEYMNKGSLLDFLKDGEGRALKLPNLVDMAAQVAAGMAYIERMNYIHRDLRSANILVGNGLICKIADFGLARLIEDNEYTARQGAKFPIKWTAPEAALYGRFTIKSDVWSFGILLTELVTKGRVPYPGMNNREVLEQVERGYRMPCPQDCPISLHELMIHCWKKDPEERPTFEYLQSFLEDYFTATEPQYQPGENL

[8] = target: T1, Tyrosine-protein kinase Fyn; assay: Inhibition of amyloid beta-induced Fyn activation in hiPSC neural cells assessed as reduction in tau phosphorylation at Thr 181 residue at 10 uM measured after 4 days by DAPI/Alexa fluor 594 staining based immunocytochemistry analysis; settings: Induced pluripotent stem cell-derived neuron, time 4.0 day
Target sequence in this assay (P06241 2-537 limits assumed): as above

[9] = Competitive inhibition of almond beta-glucosidase using p-nitrophenyl glycosides as substrate measured for 125 secs by spectrophotometry analysis; parameters: species or system Prunus dulcis
Prunus dulcis = assay: Competitive inhibition of almond beta-glucosidase at 100 uM using p-nitrophenyl glycosides as substrate measured for 125 secs by spectrophotometry analysis relative to control; settings: time 125.0 sec
Saccharomyces cerevisiae [10] = assay: Uncompetitive inhibition of Saccharomyces cerevisiae alpha-glucosidase at 100 uM using p-nitrophenyl glycosides as substrate measured for 125 secs by spectrophotometry analysis relative to control; settings: time 125.0 sec
[11] = Uncompetitive inhibition of Saccharomyces cerevisiae alpha-glucosidase assessed as inhibition constant for inhibitor-substrate-enzyme complex formation using p-nitrophenyl glycosides as substrate measured for 125 secs by spectrophotometry analysis
[12] = Cytotoxicity against hiPSC neural cells assessed as reduction in cell viability up to 100 uM incubated for 24 hrs by MTT assay; type: cell-based; settings: human, induced pluripotent stem cell-derived neuron
[13] = pampa, pH 7.4, 16 h
[14] = target: T1, Tyrosine-protein kinase Fyn; assay: Inhibition of Fyn activation (unknown origin) by ADP-Glo kinase assay
Target sequence in this assay (P06241 2-537 limits assumed): as above

[15] = Cytotoxicity against hiPSC neural cells assessed as reduction in cell viability up to 50 uM incubated for 24 hrs by MTT assay; type: cell-based; settings: human, induced pluripotent stem cell-derived neuron
[16] = Aggregation property of the compound in PBS buffer assessed as aggregate formation at 10 to 100 uM incubated for 2 hrs by light scattering spectrofluorimetric assay; type: physicochemical; settings: dose 10-100 µM
[17] = Aggregation property of the compound in PBS buffer at 10 to 100 uM incubated for 2 hrs by UV/Vis double beam spectrophotometric method; type: physicochemical; settings: dose 10-100 µM
[18] = Membrane retention of compound at pH 7.4 incubated for 16 hrs by PAMPA assay; type: ADME; settings: pH 7.4, 16 h
Saccharomyces cerevisiae [19] = assay: Competitive inhibition of Saccharomyces cerevisiae alpha-glucosidase at 100 uM using p-nitrophenyl glycosides as substrate measured for 125 secs by spectrophotometry analysis relative to control; settings: time 125.0 sec
[20] = Competitive inhibition of Saccharomyces cerevisiae alpha-glucosidase assessed as inhibition constant for inhibitor-enzyme complex formation using p-nitrophenyl glycosides as substrate measured for 125 secs by spectrophotometry analysis
[21] = Aqueous solubility of the compound in 5 % DMSO at 50 to 100 uM incubated for 2 hrs; type: physicochemical; settings: buffer, dose 50-100 µM
[22] = Membrane retention of compound assessed as partial membrane retention at pH 7.4 by LC-MS based PAMPA assay; type: ADME
[23] = buffer, 100 µM

COC[C@H]1O[C@@H](c2ccc(O)c(O)c2)[C@H](OC)[C@@H](OC)[C@@H]1OC
inhibition (INH) [1]: Not Active | inhibition [2]: inactive | Activity [3]: Non-Toxic | inhibition [4]: 15% | inhibition [5]: 16% | logD at 2 h, 1 µM [6]: 1.1

O=c1c(-c2ccc(O)cc2)coc2cc(O)cc(O)c12 [GENISTEIN]
inhibition [7]: Active | inhibition [8]: Active | Activity [3]: Non-Toxic | inhibition [4]: 12% | inhibition [5]: 41% | Ki [9]: 66 µM | inhibition (Prunus dulcis): 44% | logD at 2 h, 1 µM [6]: 3.3 | inhibition (Saccharomyces cerevisiae [10]): 84% | Ki [11]: 12 µM

O=C(Cc1ccccc1)c1c(O)cc(O)cc1O
inhibition [2]: inactive

COC[C@H]1O[C@@H](c2c(O)ccc3ccccc23)[C@H](OC)[C@@H](OC)[C@@H]1OC
inhibition (INH) [1]: Not Active | Activity [3]: Non-Toxic | inhibition [4]: inactive | inhibition [5]: 23% | logD at 2 h, 1 µM [6]: 2.7

O=C(Cc1ccccc1)Oc1cc(O)cc(O)c1
inhibition [2]: inactive

O=C(Oc1ccc(O[C@H]2O[C@H](CO)[C@@H](O)[C@H](O)[C@H]2O)cc1)c1ccccc1
inhibition (INH) [1]: Not Active | inhibition [8]: Active | Activity [3]: Non-Toxic | inhibition [4]: inactive | inhibition [5]: 10% | logD at 2 h, 1 µM [6]: 1 | Activity [12]: Non-Toxic | logPeff [13]: Not Active

COC[C@H]1O[C@@H](c2c(O)cc(O)c(C(C)=O)c2O)[C@H](OC)[C@@H](OC)[C@@H]1OC
inhibition [7]: Active | inhibition (INH) [1]: Not Active | inhibition [14]: inactive | inhibition [2]: inactive | inhibition [8]: Active | Activity [3]: Non-Toxic | Activity [15]: Non-Toxic | inhibition [4]: inactive | inhibition [5]: 16% | logD at 2 h, 1 µM [6]: 2.3 | Activity [16]: Not Active | Activity [17]: Not Active

OC[C@H]1O[C@@H](c2c(O)ccc3ccccc23)[C@H](O)[C@@H](O)[C@@H]1O
inhibition [7]: Active | inhibition (INH) [1]: Not Active | inhibition [2]: inactive | Activity [3]: Non-Toxic | inhibition [4]: inactive | inhibition [5]: 10% | Activity [16]: Not Active | Activity [17]: Not Active

CC(=O)N1CCN(c2ccc(OCC3COC(Cn4ccnc4)(c4ccc(Cl)cc4Cl)O3)cc2)CC1 (stereo not drawn) [KETOCONAZOLE]
Activity [16]: Not Active

O=c1c(-c2ccc(O)cc2)coc2c([C@@H]3O[C@H](CO)[C@@H](O)[C@H](O)[C@H]3O)c(O)cc(O)c12
logD at 2 h, 1 µM [6]: -0.1

COC[C@H]1O[C@@H](c2cc(O)ccc2O)[C@H](OC)[C@@H](OC)[C@@H]1OC
inhibition (INH) [1]: Not Active | inhibition [14]: Active | inhibition [2]: inactive | inhibition [8]: Active | Activity [3]: Non-Toxic | inhibition [4]: inactive | inhibition [5]: 21% | Activity [16]: Not Active | Activity [17]: Not Active

COC[C@H]1O[C@@H](c2c(O)cc(O)cc2O)[C@H](OC)[C@@H](OC)[C@@H]1OC
inhibition [7]: Active | inhibition (INH) [1]: Not Active | inhibition [14]: Active | inhibition [8]: inactive | Activity [3]: Non-Toxic | inhibition [4]: inactive | inhibition [5]: 10% | logD at 2 h, 1 µM [6]: 1.6 | Activity [16]: Not Active | Activity [17]: Not Active

COC[C@H]1O[C@@H](c2cc(OC(=O)c3ccccc3)ccc2O)[C@H](OC)[C@@H](OC)[C@@H]1OC
inhibition (INH) [1]: Not Active | Activity [3]: Non-Toxic | inhibition [4]: 14% | inhibition [5]: 12% | logD at 2 h, 1 µM [6]: 3.2 | Drug uptake [18]: 80%

O=C(Oc1ccccc1O[C@H]1O[C@H](CO)[C@@H](O)[C@H](O)[C@H]1O)c1ccccc1
inhibition (INH) [1]: Not Active | inhibition [2]: inactive | inhibition [8]: inactive | Activity [3]: Non-Toxic | inhibition [4]: 10% | inhibition [5]: 17% | inhibition (Saccharomyces cerevisiae [19]): 74% | logD at 2 h, 1 µM [6]: 0.1 | Ki [20]: 39 µM | Activity [16]: Not Active | Activity [17]: Not Active

COC[C@H]1O[C@@H](c2ccc(OC(=O)c3ccccc3)c(OC(=O)c3ccccc3)c2)[C@H](OC)[C@@H](OC)[C@@H]1OC
inhibition [7]: Active | inhibition (INH) [1]: Not Active | inhibition [2]: inactive | inhibition [8]: Active | Activity [3]: Non-Toxic | inhibition [4]: inactive | inhibition [5]: 12% | logD at 2 h, 1 µM [6]: > 2.5 | solubility [21]: Insoluble | Drug uptake [18]: Active | Drug uptake [22]: Active | solubility [23]: Insoluble

COC[C@H]1O[C@@H](c2cc(OC(=O)c3ccccc3)ccc2OC(=O)c2ccccc2)[C@H](OC)[C@@H](OC)[C@@H]1OC
inhibition [7]: Active | inhibition (INH) [1]: Not Active | inhibition [8]: Active | Activity [3]: Non-Toxic | inhibition [4]: 19% | inhibition [5]: 16% | logD at 2 h, 1 µM [6]: > 2.5 | solubility [21]: Insoluble | logPeff [13]: Not Active | solubility [23]: Insoluble

O=C(Cc1ccccc1)c1c(O)cc(O)c([C@@H]2O[C@H](CO)[C@@H](O)[C@H](O)[C@H]2O)c1O
inhibition [4]: inactive | inhibition [5]: 17%

O=C(Oc1ccc([C@@H]2O[C@H](CO)[C@@H](O)[C@H](O)[C@H]2O)cc1OC(=O)c1ccccc1)c1ccccc1
inhibition [7]: Active | inhibition (INH) [1]: Not Active | inhibition [2]: inactive | inhibition [8]: Active | Activity [3]: Non-Toxic | inhibition [4]: inactive | inhibition [5]: 39% | Activity [12]: Non-Toxic | Activity [16]: Not Active | Activity [17]: Not Active

O=C(Oc1ccc(OC(=O)c2ccccc2)c([C@@H]2O[C@H](CO)[C@@H](O)[C@H](O)[C@H]2O)c1)c1ccccc1
inhibition (INH) [1]: Not Active | Activity [3]: Non-Toxic | inhibition [4]: inactive | inhibition [5]: 21% | logD at 2 h, 1 µM [6]: 2

O=C(Oc1ccc(O)c([C@@H]2O[C@H](CO)[C@@H](O)[C@H](O)[C@H]2O)c1)c1ccccc1
inhibition [7]: Active | inhibition (INH) [1]: Not Active | inhibition [2]: inactive | Activity [3]: Non-Toxic | inhibition [4]: inactive | inhibition [5]: inactive | logD at 2 h, 1 µM [6]: < 0.5 | Activity [16]: Not Active | Activity [17]: Not Active

CC(=O)c1c(O)cc(O)c([C@@H]2O[C@H](CO)[C@@H](O)[C@H](O)[C@H]2O)c1O
inhibition [7]: Active | inhibition (INH) [1]: Not Active | inhibition [8]: Active | Activity [3]: Non-Toxic | inhibition [4]: inactive | inhibition [5]: 15% | Activity [12]: Non-Toxic | Activity [16]: Not Active | Activity [17]: Not Active | logPeff [13]: Bld

Oc1ccc(OC2O[C@H](COCc3ccccc3)[C@@H](OCc3ccccc3)[C@H](OCc3ccccc3)[C@H]2OCc2ccccc2)cc1 (stereo partly drawn)
inhibition [2]: inactive
